# Experimental data taken from US20250312365A1, “METHODS FOR INHIBITION OF SQUAMOUS CARCINOMA CELLS USING CERAMIDE MODULATORS” (The Trustees of Indiana University, priority 2024, published 2025).
# Entries after “also recorded” stand apart in the source; their conditions may differ.
# Columns and labels:
# Assay type in all cases: cell-based, human
# ACER2 = ACER2 mRNA expression in OECM1 cells; details: 0.1 or 1 μg/ml of PGDHC
# Source text: (§1) Exemplary ceramidase genes, the expression of which can be measured to determine upregulation, include but are not limited to ASAH1, ACER2, and ACER3. A determination of ceramidase gene expression can be made according to methods available to one of skill in the art. For example, Yamada et al., J Cell Mol Med. 2023 May;27(9):1290-1295 and Kyriakou et al., Int. J. Mol. Sci. 2020, 21(5):1607 describes measuring the mRNA levels of ceramidases by RNA extraction and RT-PCR.
# (§2) To test this hypothesis, it was first determined whether artificially elevated intracellular concentration of ceramide species affect the expression of acid/ASAH1, neutral/ASAH2, and alkaline1-3/ACER1-3 ceramidases in oral squamous cell carcinoma cells using C6-ceramide. Applicant previously reported that C6-ceramide serves as a positive control for PGDHC-mediated inflammation (Kanzaki et al., Biochim Biophys Acta Mol Cell Biol Lipids. 2017 May;1862(5):452-462) and promotes the intracellular accumulation of ceramide in cancer cells. See, e.g., Zhang et al., Front Plant Sci. 2020 Feb. 26:11:145, Zhai et al., Biochem Biophys Res Commun. 2015 December;468(1-2):274-80, Wilhelm et al., Cancers (Basel). 2021 Jan. 13;13(2):270, and Chapman et al., Biochem Pharmacol. 2010 Aug. 1;80(3):308-15.
# (§3) Next, the effect of PGDHC on ceramidase gene expression was determined. OECM1 and SCC4 cells were exposed to 0.1 or 1 μg/ml of PGDHC. The mRNA levels of ceramidases were then measured following PGDHC exposure. PGDHC inhibited the expression of ASAH1 and ACER2 mRNAs in OECM1 (FIG. 8). […] See, e.g., Vijayan et al., J Adv Res. 2023 Dec. 21:S2090-1232(23)00403-4, Doan et al., Oncotarget. 2017 Nov. 7;8(68):112662-112674., Lai et al., Sci Rep. 2021 May 27;11(1):11221, Liu et al., Cancer Sci. 2020 July;111(7):2259-2274., and Liu et al., Front Genet. 2023 Mar. 1:14:1148437.
# (§4) To elucidate the effects of C16:0 and dh-C16:0 on oral squamous cell carcinoma, the ability of exogenous C16:0 and dh-C16:0 to modulate proliferation and ceramidase expression in OECM1 cells was determined. […] In contrast, no effect of C16:0 on ASAH1 and ACER2 mRNA expressions.
# [1] = tested on: tongue squamous carcinoma cells (SCC4); assay: WST-1 proliferation assay in SCC4 cells; details: 0.1 μg/ml and 1 μg/ml
# Source text: In specific examples, colorimetric assays can be used to assess cellular viability and proliferation of cell cultures, such as MTT, WST-1, and resazurin assays. See, e.g., Präbst et al., Methods Mol Biol. 2017:1601:1-17.
# Various cell lines were exposed to PGDHC, including human gingival squamous carcinoma cells (OECM1), tongue squamous carcinoma cells (SCC4, SCC9), and healthy human gingival epithelial control cells (OBA9) in vitro.
# SCC9 cells = assay: Untargeted metabolomic pathway analysis (LC/MS) in SCC9 cells; details: 1 μg/ml for 6 h
# Source text: The plots in FIGS. 16A and 16B display the enriched pathways identified in the analysis, with their corresponding significance levels represented on the x-axis. The significance threshold (p<0.05) is denoted by the dashed line. […] Additionally, the color of the dots represents the enrichment, which indicates the extent to which the metabolites in the pathway were clustered amongst the compounds with the most positive fold-changes (positive enrichments), the most negative fold-changes (negative enrichments), or uniformly distributed across high and low fold-change compounds (enrichment values near 0.0). […] Polar and lipid metabolites were analyzed with hydrophilic interaction chromatography (HILIC/MS) and liquid chromatography (LC/MS), respectively. Mass spectrometry analysis was completed with a mass range of 67-1500 Da with 1 scan/sec and a mass resolution of 120,000 in both positive and negative ionization mode. The MS/MS mass-spectrometry data were acquired in a data-dependent iterative fashion with a 1.3 m/z isolation window. Based upon this metabolomic analysis, phosphoglycerol dihydroceramide (PGDHC) isolated from Porphyromonas gingivalis inhibits metabolomic pathways essential for cell survival in oral squamous cell carcinoma cells (OSCC). […]
# SCC9 were exposed to a15:0-i15:0PE (1 μg/ml) for 6 h in vitro. […] The significance threshold (p<0.05) is denoted by the grey dashed line. […] Additionally, the color of the dots represents the enrichment, which indicates the extent to which the metabolites in the pathway were clustered amongst the compounds with the most positive fold-changes (positive enrichments), the most negative fold-changes (negative enrichments), or uniformly distributed across high and low fold-change compounds (enrichment values near 0.0).
# Vimentin = assay: Western blot of Vimentin in OECM1 cells; details: 24 h of treatment
# Description: To determine the effect of PGDHC on cell markers involved in metastasis, the protein levels of p-STAT3, EMT markers, E-cadherin, N-cadherin, and Vimentin in OECM1 cells following in vitro exposure to PGDHC were determined by Western blot assay.
# ASAH1 = ASAH1 (acid ceramidase) mRNA expression in OECM1 cells; details: 0.1 or 1 μg/ml of PGDHC
# Source text: as §1, §2, §3, §4
# We evaluated the effect of a15:0-i15:0 phosphoethanolamine phospholipid (FIG. 1D), isolated from the gut bacteria Akkermansia muciniphila on OSCC cells.
# ADAM17 = ADAM17 mRNA expression in OECM1 cells; details: in combination with S1P
# Description: (§5) NF-kB, MMP-2, ADAM-17, and IL6 are implicated in the degradation of the expression of genes involved in the cell basement membrane and extracellular matrix of oral squamous cell carcinoma. Accordingly, the expression of NFkB, MMP2, ADAM17, and IL6 in OECM1 cells following exposure to 0.1 μg/ml PGDHC and 1 μg/ml PGDHC was determined.
# (§6) Sphingosine-1-phosphate (S1P) sphingolipid plays an essential role in the survival, migration, and degradation of the basement membrane and extracellular matrix of oral squamous cell carcinoma (Yura et al., Cancers (Basel). 2020 August; 12(8): 2062). To determine whether PGDHC can inhibit such properties, the combined effects of PGDHC and S1P on OECM1 gene expression was tested in vitro.
# NFkB = NFkB mRNA expression in OECM1 cells
# Description: as §5, §6
# MMP2 = MMP2 mRNA expression in SCC4 cells; details: relative to control cells
# Description: Expression of these genes was also assessed in human tongue squamous cell carcinoma SCC4 cells.
substance,measurement,setting,value
phosphoglycerol dihydroceramide [PGDHC],expression of ACER2 mRNA in OECM1,ACER2,inhibited
same,proliferation of SCC4 cells,[1],did not have an observable effect
same,Warburg effect in SCC9 cells,SCC9 cells,altered
same,arginine and proline metabolism in SCC9 cells,SCC9 cells,diminished accumulation; also recorded: inhibits
same,de novo triacylglycerol biosynthesis in SCC9 cells,SCC9 cells,diminished accumulation; also recorded: inhibits
same,folate metabolism in SCC9 cells,SCC9 cells,diminished accumulation; also recorded: inhibits
same,glycine and serine metabolism in SCC9 cells,SCC9 cells,diminished accumulation; also recorded: inhibits
same,level of ATP in SCC9 cells (relative abundance),SCC9 cells,altered
same,level of glucose in SCC9 cells (relative abundance),SCC9 cells,altered
same,mitochondrial electron transport in SCC9 cells,SCC9 cells,diminished accumulation; also recorded: inhibits
same,protein level of Vimentin in OECM1 cells,Vimentin,little to no detectable effect
same,expression of ASAH1 mRNA in OECM1,ASAH1,inhibits; also recorded: dramatically inhibited
same,ADAM17 mRNA levels in OECM1 cells exposed to S1P,ADAM17,a significant effect was not observed
same,expression of NFkB mRNA in OECM1 cells,NFkB; 1 μg/ml,significantly inhibited
same,expression of NFkB mRNA in OECM1 cells exposed to S1P,NFkB; in combination with S1P,significantly inhibited
same,MMP2 mRNA in SCC4 cells,MMP2,significantly diminished
